According to PubChem BioAssay (NCI):
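Grown in 96-well plates, cells were treated for 48 hours with each compound at five concentrations. Insufficient inhibition: endpoint recorded as highest concentration tested. Definition used: TGI = concentration required for complete inhibition of growth.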

Experiments:
Assay in all cases: inhibition of tumour cell growth, NCI panel, 48 h
[1] = test system: MCF7 breast
[2] = test system: A549 NSCLC
[3] = test system: MDA-MB-435
[4] = test system: DU-145 prostate
[5] = test system: 786-0 renal
[6] = test system: SK-MEL-28 melanoma
[7] = test system: SNB-19 CNS
[8] = test system: HCT-116 colon
[9] = test system: U251 CNS
[10] = test system: SW-620 colon
[11] = test system: MOLT-4 leukemia
[12] = test system: HOP-62 NSCLC
[13] = test system: RXF 393 renal
[14] = test system: SK-MEL-2 melanoma
[15] = test system: A498 renal
[16] = test system: M14 melanoma
[17] = test system: SF-295 CNS
[18] = test system: SR leukemia
[19] = test system: BT-549 breast
[20] = test system: RPMI-8226 leukemia
[21] = test system: HCT-15 colon
[22] = test system: HT29 colon
[23] = test system: HL-60(TB) leukemia
[24] = test system: MDA-N
[25] = test system: UACC-257 melanoma
[26] = test system: UACC-62 melanoma
[27] = test system: HCC-2998 colon
[28] = test system: CAKI-1 renal
[29] = test system: MDA-MB-231 breast
[30] = test system: NCI-H226 lung
[31] = test system: SF-539 CNS
[32] = test system: LOX IMVI melanoma
[33] = test system: COLO 205 colon
[34] = test system: SK-MEL-5 melanoma
[35] = test system: SK-OV-3 ovarian
[36] = test system: ACHN renal
[37] = test system: EKVX NSCLC
[38] = test system: IGROV1 ovarian
[39] = test system: OVCAR-4 ovarian
[40] = test system: HS 578T breast
[41] = test system: HOP-92 NSCLC
[42] = test system: NCI-H23 lung
[43] = test system: T-47D breast
[44] = test system: CCRF-CEM leukemia
[45] = test system: SN12C renal
[46] = test system: MALME-3M melanoma
[47] = test system: K-562 leukemia
[48] = test system: UO-31 renal
[49] = test system: OVCAR-5 ovarian
[50] = test system: SF-268 CNS
[51] = test system: NCI-H460 lung
[52] = test system: NCI-H522 lung
[53] = test system: OVCAR-3 ovarian
[54] = test system: TK-10 renal
[55] = test system: PC-3 prostate
[56] = test system: NCI/ADR-RES ovarian
[57] = test system: KM12 colon
[58] = test system: OVCAR-8 ovarian

Measured: TGI

CN1N(c2ccccc2)C(=O)C2=NC=C(C(=O)c3ccccc3)C(=N)C21C (stereo not given)
not listed: [56] | [57] | [58]
> 100 µM: all other assays above

O=C1c2ccc3c4ccc5c6c(ccc(c7ccc(c2c37)C(=O)N1CCN1CCCCC1)c64)C(=O)N(CCN1CCCCC1)C5=O
not listed: [29] | [46] | [52]
> 100 µM: all other assays above
